± gives the standard deviation of the averaged measurements.
System: VA-ES-BJ
Experiment: relative viability vs DMSO control (72 h) (fraction); higher = more viable cells
Procedure, shortened: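 Densities for seeding sarcoma cell lines into 384-well plates were set to give 80–90% confluence. After 24 h, 2.5 µl of serially diluted compound from source plates of 10 mM to 0.0002 mM went in, and plates stayed 72 h at 37 °C in 5% CO2 with 0.1% DMSO vehicle and a 5 µM positive control. Percent growth from ATPLite readings, averaged over up to triplicate wells, served as relative viability, rescaled so 1 means full and 0 means none.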

Compound	relative viability (0.00017 µM)	relative viability (0.00051 µM)	relative viability (0.00152 µM)	relative viability (0.00457 µM)	relative viability (0.01372 µM)	relative viability (0.04115 µM)	relative viability (0.1235 µM)	relative viability (0.3704 µM)	relative viability (1.111 µM)	relative viability (3.333 µM)	relative viability (10 µM)
O=C(Nc1cnn2ccc(N3CCC[C@@H]3c3cc(F)ccc3F)nc12)N1CC[C@H](O)C1 [Larotrectinib]	1.05 ± 0.058	1.07 ± 0.037	1.04 ± 0.04	1.06 ± 0.044	1.04 ± 0.017	1.02 ± 0.046	1 ± 0.04	0.99 ± 0.022	1.02 ± 0.036	0.989 ± 0.043	0.994 ± 0.043
COCc1c(-c2cc3cc(C)cc(OC)c3s2)c2c(N)ncnn2c1CN1CCNC(=O)C1 [Rogaratinib]	1.074 ± 0.0046	1.07 ± 0.037	1.05 ± 0.036	1.05 ± 0.021	1.06 ± 0.021	1.03 ± 0.042	1.04 ± 0.081	1.02 ± 0.075	1.02 ± 0.063	0.908 ± 0.087	0.568 ± 0.031
Cn1cnc2c(F)c(Nc3ccc(Br)cc3F)c(C(=O)NOCCO)cc21 [Binimetinib]	1.06 ± 0.011	1.09 ± 0.032	1.07 ± 0.037	1.02 ± 0.028	1.02 ± 0.044	0.966 ± 0.027	0.946 ± 0.071	0.921 ± 0.069	0.879 ± 0.046	0.794 ± 0.041	0.689 ± 0.058
Cn1cc(-c2cc3c(N4CCN(c5ncc([C@@](C)(N)c6ccc(F)cc6)cn5)CC4)ncnn3c2)cn1 [Avapritinib]	1.02 ± 0.013	1.01 ± 0.025	1 ± 0.013	1.01 ± 0.03	0.998 ± 0.057	0.993 ± 0.023	0.971 ± 0.039	0.98 ± 0.031	0.975 ± 0.011	0.956 ± 0.034	0.979 ± 0.028
C[C@]1(O)C[C@@H](c2nc(-c3ccc4ccc(-c5ccccc5)nc4c3)c3c(N)nccn32)C1 [Linsitinib]	1.08 ± 0.025	1.07 ± 0.04	1.05 ± 0.05	1.06 ± 0.011	1.01 ± 0.02	0.989 ± 0.021	0.987 ± 0.052	0.966 ± 0.042	0.937 ± 0.05	0.871 ± 0.11	0.74 ± 0.036
Cc1cc(Nc2ncnc3ccc(NC4=NC(C)(C)CO4)cc23)ccc1Oc1ccn2ncnc2c1 [Tucatinib]	1.09 ± 0.036	1.058 ± 0.0029	1.07 ± 0.032	1.04 ± 0.015	1.02 ± 0.02	1.03 ± 0.043	1.02 ± 0.089	1.01 ± 0.058	1.03 ± 0.023	1.03 ± 0.049	1.01 ± 0.023
Nc1cc(C(F)(F)F)c(-c2cc(N3CCOCC3)nc(N3CCOCC3)n2)cn1 [Buparlisib]	1.01 ± 0.043	1 ± 0.053	0.999 ± 0.027	1.01 ± 0.032	0.997 ± 0.035	0.983 ± 0.055	0.875 ± 0.058	0.663 ± 0.018	0.316 ± 0.0056	0.189 ± 0.0041	0.1818 ± 0.0013
C[C@@H]1CCN(C(=O)CC#N)C[C@@H]1N(C)c1ncnc2[nH]ccc12 [Tofacitinib]	1.052 ± 0.0034	1.07 ± 0.014	1.02 ± 0.037	1.06 ± 0.039	1.02 ± 0.035	1.02 ± 0.026	1.01 ± 0.019	1.01 ± 0.017	1 ± 0.036	0.9697 ± 0.0069	0.931 ± 0.018
COc1cc2/c(=N/c3ccc(Br)cc3F)nc[nH]c2cc1OCC1CCN(C)CC1 [Vandetanib]	1.04 ± 0.044	1.04 ± 0.027	1.03 ± 0.043	1.05 ± 0.073	1.06 ± 0.022	1.1 ± 0.04	1.11 ± 0.029	1.11 ± 0.018	1.08 ± 0.02	0.93 ± 0.035	0.239 ± 0.0077
CCCS(=O)(=O)Nc1ccc(F)c(C(=O)c2c[nH]c3ncc(-c4ccc(Cl)cc4)cc23)c1F [Vemurafenib]	1.09 ± 0.048	1.08 ± 0.058	1.04 ± 0.063	1.06 ± 0.039	1.074 ± 0.0083	1.06 ± 0.042	1.09 ± 0.017	1.12 ± 0.056	1.12 ± 0.043	1.02 ± 0.042	0.769 ± 0.03
C=CC(=O)N1CCC([C@@H]2CCNc3c(C(N)=O)c(-c4ccc(Oc5ccccc5)cc4)nn32)CC1 [Zanubrutinib]	1.02 ± 0.011	1.01 ± 0.012	1.01 ± 0.03	0.996 ± 0.039	0.982 ± 0.029	1.04 ± 0.028	0.997 ± 0.047	0.998 ± 0.054	0.95 ± 0.025	0.912 ± 0.048	0.836 ± 0.013
CC(=O)Nc1cccc(-n2c(=O)n(C3CC3)c(=O)c3c(Nc4ccc(I)cc4F)n(C)c(=O)c(C)c32)c1 [Trametinib]	1.08 ± 0.043	1.04 ± 0.026	1.02 ± 0.034	0.961 ± 0.038	0.871 ± 0.028	0.811 ± 0.032	0.738 ± 0.029	0.656 ± 0.022	0.628 ± 0.018	0.604 ± 0.019	0.572 ± 0.016
C=CC(=O)N1CCC[C@@H](n2nc(-c3ccc(Oc4ccccc4)cc3)c3c(N)ncnc32)C1 [Ibrutinib]	1.09 ± 0.046	1.08 ± 0.035	1.08 ± 0.089	1.06 ± 0.026	1.08 ± 0.05	1.09 ± 0.044	1.07 ± 0.068	1.07 ± 0.092	1.13 ± 0.056	1.1 ± 0.036	0.989 ± 0.013
Cc1ccc(F)c(NC(=O)Nc2ccc(-c3cccc4[nH]nc(N)c34)cc2)c1 [Linifanib]	1.05 ± 0.022	1.07 ± 0.041	1.06 ± 0.03	1.07 ± 0.056	1.05 ± 0.025	1.08 ± 0.059	1.07 ± 0.046	1.06 ± 0.056	1.11 ± 0.063	1.11 ± 0.035	1.03 ± 0.047
CC[C@H](Nc1ncnc2[nH]cnc12)c1nc2cccc(F)c2c(=O)n1-c1ccccc1 [Idelalisib]	1.12 ± 0.01	1.12 ± 0.052	1.09 ± 0.015	1.09 ± 0.071	1.06 ± 0.03	1.07 ± 0.041	1.05 ± 0.026	1.03 ± 0.053	0.931 ± 0.041	0.872 ± 0.035	0.705 ± 0.038
CC(C)(C)c1cc(NC(=O)Nc2ccc(-c3cn4c(n3)sc3cc(OCCN5CCOCC5)ccc34)cc2)no1 [Quizartinib]	1.06 ± 0.028	1.06 ± 0.038	1.05 ± 0.019	1.06 ± 0.032	1.05 ± 0.026	1.05 ± 0.038	1.02 ± 0.059	1.04 ± 0.03	1.02 ± 0.045	0.947 ± 0.022	0.831 ± 0.032
CNC(=O)c1cc(Oc2ccc(NC(=O)Nc3ccc(Cl)c(C(F)(F)F)c3)c(F)c2)ccn1 [Regorafenib]	1.13 ± 0.018	1.15 ± 0.032	1.1 ± 0.019	1.083 ± 0.0058	1.11 ± 0.035	1.08 ± 0.023	1.18 ± 0.048	1.19 ± 0.08	1.21 ± 0.072	1.24 ± 0.12	0.684 ± 0.048
CNC(=O)c1ccc(-c2cnc3ncc(Cc4ccc5ncccc5c4)n3n2)cc1F [Capmatinib]	1.06 ± 0.068	1.03 ± 0.042	1.01 ± 0.062	0.943 ± 0.04	0.87 ± 0.016	0.844 ± 0.03	0.839 ± 0.01	0.844 ± 0.017	0.878 ± 0.059	0.88 ± 0.035	0.855 ± 0.036

From the supplement of paper PMC10883282
